Source: patent US10603292B2 (Boehringer Ingelheim International GmbH, priority 2017, dated 2020)

Tests used:
[1] = test system: oxygen-induced retinopathy (OIR) mouse model; experiment: Neovascular tuft formation in oxygen-induced retinopathy (OIR) mouse model; conditions: neonatal mice, 1.8 mg/kg s.c. at P12 and P14, read at P16, vs vehicle control
Description: Application volume was 10 ml/kg. Control animals received vehicle only.
In this context P means postnatal day. […] Starting from P12, the avascular area begins to revascularize and at the same time neovascular tufts protrude towards the vitreous. At P16 and P17, aberrant pathological neovascularization peaks and revascularization is still incomplete. Mouse eyes were enucleated, fixed in 4% PFA for at least 24 h, and embedded in paraffin. Every 3rd slide from serial sections (6 μm thick) was taken from around the region of the optic nerve. The PAS-stained sections were examined for the presence of neovascular tufts projecting into the vitreous from the inner limiting membrane of the retina. The neovascular score was defined as the mean number of neovascular cell nuclei per section found in ten sections (five on each side of the optic nerve) per eye. Tufts adjacent to the optic nerve (up to 90 μm from each side) were discriminated from counting. Data are represented as mean of 10 slides ±SEM counted tuft cells with one-way ANOVA testing and p<0.05 regarded as significant.

[2] = test system: STZ-induced diabetic rat model; experiment: Retinal function (ERG light sensitivity) in STZ-induced diabetic rat model; format: in vivo; conditions: STZ diabetic rats, 1.8 mg/kg orally twice daily for 5 weeks; group 3 compared to diabetic vehicle group 2
Description: Male Brown Norway rats (BN rats) were obtained from Charles River (Germany). Hyperglycemia was induced by i.p. injections of STZ (65 mg/kg body weight). […] API was used in the form of its hydrochloride. Retinal function was assessed via electroretinography (ERG) recordings. ERG is a non-invasive electrophysiological technique to assess light-induced electrical activity of different retinal neurons, and allows for quantifying different aspects of retinal function such as dim light or color vision. After induction of diabetes via i.p. STZ application (day 1), diabetic (hyperglycemic) animals were randomized into groups of similar blood glucose concentrations (>20 mM at day 5). At week 5 post diabetes induction, ERG recordings were performed to quantify the extent of neuronal dysfunction in the retina. […] The light sensitivity of rod-driven ERG b-wave responses is a measure for the number of neurons participating in the rod-driven retinal pathway (in particular photoreceptors and downstream bipolar cells), and their sensitivity towards light stimuli in order to produce depolarizing light responses. […]

AOC3 = molecular target: T1, AOC3 (Mus musculus, UniProt O70423); experiment: AOC3 activity in sentinel lung tissue homogenates of OIR mice; conditions: 1.8 mg/kg s.c.
T1 sequence (O70423 1-765): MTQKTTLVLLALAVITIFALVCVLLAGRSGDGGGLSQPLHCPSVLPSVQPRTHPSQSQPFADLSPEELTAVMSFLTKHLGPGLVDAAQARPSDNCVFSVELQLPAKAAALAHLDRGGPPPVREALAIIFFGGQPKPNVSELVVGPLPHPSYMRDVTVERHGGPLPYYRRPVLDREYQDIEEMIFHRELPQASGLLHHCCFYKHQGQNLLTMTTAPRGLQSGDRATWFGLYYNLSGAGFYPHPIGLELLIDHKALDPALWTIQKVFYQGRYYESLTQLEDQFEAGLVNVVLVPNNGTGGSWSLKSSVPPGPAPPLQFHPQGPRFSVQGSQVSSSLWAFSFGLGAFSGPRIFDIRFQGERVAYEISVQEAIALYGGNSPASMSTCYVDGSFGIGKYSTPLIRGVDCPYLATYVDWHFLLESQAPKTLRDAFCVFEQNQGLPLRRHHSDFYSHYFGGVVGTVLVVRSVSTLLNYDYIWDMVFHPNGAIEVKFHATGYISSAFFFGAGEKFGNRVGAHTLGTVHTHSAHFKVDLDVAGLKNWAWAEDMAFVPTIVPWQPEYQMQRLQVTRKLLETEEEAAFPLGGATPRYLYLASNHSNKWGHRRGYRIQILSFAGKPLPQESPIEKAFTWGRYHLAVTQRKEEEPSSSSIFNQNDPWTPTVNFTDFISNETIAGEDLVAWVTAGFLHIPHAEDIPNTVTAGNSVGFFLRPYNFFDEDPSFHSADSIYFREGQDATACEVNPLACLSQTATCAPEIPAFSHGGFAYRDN

Row | Increase in normalized light sensitivity of rod-driven ERG b-wave responses [2] | Inhibition of AOC3 activity in sentinel lung tissue homogenates (AOC3) | Structure (SMILES) | Reduction of retinal neovascular tuft formation (tuft number) [1]
1 | ~30% |  | CC(C)(C)NC(=O)c1ccc(OC/C(=C/F)CN)cc1 [API, (E)-4-(2-(aminomethyl)-3-fluoroallyloxy)-N-tert-butylbenzamide] | 49%
2 |  | no significant effect | C[C@@H]1C[C@H]2[C@@H]3CCC4=CC(=O)C=C[C@]4(C)[C@@]3(F)[C@@H](O)C[C@]2(C)[C@@]1(O)C(=O)CO [Dexamethasone] | 57%
